Several values for one entry are separate records, joined by “and”; a condition that tells them apart may be missing. Identical values can stand only once.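 Where inhibition never reached the appropriate level, the endpoint shown equals the highest concentration tested. Otherwise, values were interpolated linearly from a five-concentration, 48-hour dose response in 96-well plates. GI50: concentration for 50% inhibition of growth. At the TGI there is no net growth.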
How the values were obtained:
Test in all cases: NCI-60 cell line screen, 48 h
[1] = tested on: HL-60(TB) leukemia
[2] = tested on: UACC-62 melanoma
[3] = tested on: PC-3 prostate
[4] = tested on: SF-295 CNS
[5] = tested on: HCT-15 colon
[6] = tested on: OVCAR-4 ovarian
[7] = tested on: NCI-H23 lung
[8] = tested on: NCI-H460 lung
[9] = tested on: HCC-2998 colon
[10] = tested on: TK-10 renal

SMILES | GI50 [1] | TGI [1] | GI50 [2] [nM] | TGI [2] | GI50 [3] [nM] | TGI [3] [nM] | GI50 [4] [nM] | TGI [4] | GI50 [5] | TGI [5] [nM] | GI50 [6] | TGI [6] [nM] | GI50 [7] | TGI [7] | GI50 [8] | TGI [8] [nM] | GI50 [9] | TGI [9] [nM] | GI50 [10] [nM] | TGI [10] [nM]
O=C(Nc1ccc(Cl)cc1)Nc1ccccc1CNc1nc(Nc2ccc(OCCN3CCCC3)cc2)ncc1Cl | 1050 nM | 2190 nM | 903 | 1780 nM | 1070 | 2350 | 7650 | 14600 nM | 1010 nM | 2600 | 862 nM | 1660 | 2530 nM | 10000 nM | 936 nM | 1780 | 1220 nM | 3380 | 982 | 1910
CC[C@H](C)[C@H](NC(=O)[C@H]1CCCCN1C)C(=O)N(C)[C@H](C[C@@H](OC(C)=O)c1nc(C(=O)N[C@@H](Cc2ccccc2)C[C@H](C)C(=O)OC)cs1)C(C)C | 0.249 nM and < 2.5 nM | 0.743 nM and < 2.5 nM | – | > 25000 nM | – | > 25000 | – | 0.762 nM and 4.68 nM | 0.332 nM and 2.5 nM | – | 4.79 nM and 2.5 nM | > 25000 | 0.71 nM and 2.5 nM | > 25000 nM | 0.295 nM and 2.5 nM | > 25000 | 0.32 nM and 2.5 nM | > 25000 | 25.4 | –
COc1ccc(-c2cc(/C=C/C(=O)c3cc(OC)c(OC)c(OC)c3)[nH]n2)cc1OC | 1690 nM | 14800 nM | 1790 | 3880 nM | 1990 | 10300 | 1670 | 4260 nM | 1190 nM | 3850 | 1620 nM | 7170 | 1970 nM | 4910 nM | 1040 nM | 3600 | 1900 nM | 3400 | 3270 | 11800
COc1ccc(-c2nc3c(c(=O)n2C(C)=O)C(c2ccc(Cl)cc2)c2sc4c(Cl)cccc4c2O3)cc1 (stereo not given) | 300 nM | 982 nM | 298 | 1700 nM | 337 | 2390 | 256 | 1270 nM | 301 nM | 1660 | 845 nM | 3660 | 343 nM | 2090 nM | 365 nM | 1380 | 680 nM | 2480 | 846 | 2670
CC[C@@]1(O)C(=O)OCc2c1cc1n(c2=O)Cc2cc3c(N)cccc3nc2-1 | – | 510 nM | 3.61 | 33 nM and 63.8 nM | – | > 100000 | 8.74 | 2370 nM | – | 33700 | – | 3620 | 5.25 nM | 51.1 nM and 162 nM | 4.39 nM | 462 | 23.9 nM | 1390 | – | 38200
O=C(Nc1ccccc1O)c1ccc(CNC(=O)c2ccsc2Nc2ccnc(C(F)(F)F)c2)cc1 | 2860 nM | 9320 nM | 1430 | 4830 nM | 1940 | 20800 | 1860 | 4510 nM | 3310 nM | 18900 | 1740 nM | > 100000 | 1720 nM | 4880 nM | 2380 nM | 11400 | 1840 nM | 4330 | 2100 | 9330
COC(=O)C(C(=O)C(=O)NC1Nc2ccc(C)cc2S1)c1nc2ccc(Cl)cc2[nH]c1=O (stereo not given) | – | > 100000 nM | – | > 100000 nM | – | > 100000 | – | > 100000 nM | – | > 100000 | – | > 100000 | – | > 100000 nM | – | > 100000 | – | > 100000 | – | > 100000
Nc1ncnc2c1c(-c1ccc(Oc3ccccc3)cc1)nn2C[C@@H]1SSC[C@@H]1O | 576 nM | 7890 nM | 193 | 411 nM | 1720 | 10100 | 1470 | 5490 nM | 570 nM | 5980 | 1330 nM | 14000 | 333 nM | 7930 nM | 28.6 nM | 80.7 | 479 nM | 14800 | 705 | 2750
CN(C)C/C=C/C(=O)Nc1ccc(C(=O)N2CCC[C@@H](Nc3ncc(Cl)c(-c4c[nH]c5ccccc45)n3)C2)cc1 | 35.3 nM | 173 nM | 173 | 445 nM | 308 | 3480 | 685 | 4010 nM | 8650 nM | 23200 | 66.4 nM | 9740 | 189 nM | 783 nM | 498 nM | 5620 | 107 nM | 1200 | 2310 | 12900
O=C(O)C1C(C(=O)O)C2(Cl)C(Cl)=C(Cl)C1(Cl)C2(Cl)Cl.[Cd] (stereo not given) | 28400 nM | 72100 nM | 3840 | 15400 nM | 15300 | 29700 | > 100000 | > 100000 nM | 21400 nM | 46600 | 14900 nM | 37500 | 2620 nM | 9170 nM | 3710 nM | 18000 | 22600 nM | 47700 | 19000 | 34700
Fc1cc(-c2nnc3n2N=C(c2ccc(Cl)cc2Cl)CS3)c(Cl)cc1Cl | > 100000 nM | > 100000 nM | 24900 | 99600 nM | 39200 | > 100000 | 36400 | > 100000 nM | 38300 nM | > 100000 | > 100000 nM | > 100000 | 82500 nM | > 100000 nM | 37300 nM | > 100000 | 35000 nM | > 100000 | 77300 | > 100000
C=CC(=O)Nc1cccc(Nc2nc(Nc3ccc(OCCOC(F)F)cc3)ncc2F)c1 | 2020 nM | 10400 nM | 1730 | 11100 nM | 4010 | 27100 | 6040 | 83400 nM | 1970 nM | > 100000 | 2660 nM | > 100000 | 6990 nM | > 100000 nM | 2740 nM | 35600 | 12600 nM | 47600 | 515 | 2930

From PubChem BioAssay (NCI)
